According to US5474928A, “Arginine deiminase from a Mycoplasma arginini strain” (Nippon Mining Company, Limited, priority 1989, dated 1995):

What was measured:
[1] = target: T1, Mycoplasma arginini (IFO 14476) arginine deiminase (EC 3.5.3.6), present invention, amino acid sequence of FIG. 4 (Mycoplasmopsis arginini, UniProt P23793); assay: Km determination by Lineweaver-Burk plot analysis, citrulline formation assay; format: biochemical; settings: purified enzyme from M. arginini, substrate L-arginine
T1 construct: Arginine deiminase was purified from the M. arginini cell extract; endogenous in cells; host or cells: Mycoplasma arginini IFO 14476 cells (strain from the Institute for Fermentation, Osaka); enzyme purified in house by three chromatography steps
T1 sequence (P23793 whole entry): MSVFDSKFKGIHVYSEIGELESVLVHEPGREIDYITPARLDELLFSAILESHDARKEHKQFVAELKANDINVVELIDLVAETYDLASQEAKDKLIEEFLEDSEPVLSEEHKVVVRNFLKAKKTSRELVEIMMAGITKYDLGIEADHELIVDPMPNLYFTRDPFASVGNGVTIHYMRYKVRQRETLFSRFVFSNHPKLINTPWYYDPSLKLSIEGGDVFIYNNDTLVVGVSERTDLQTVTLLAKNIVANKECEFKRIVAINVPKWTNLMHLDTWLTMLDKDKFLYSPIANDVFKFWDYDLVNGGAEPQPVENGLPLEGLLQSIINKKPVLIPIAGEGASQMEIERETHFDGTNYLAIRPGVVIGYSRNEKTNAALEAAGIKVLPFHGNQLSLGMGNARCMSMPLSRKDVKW
Procedure: The activity of arginine deiminase can be determined by causing it to produce citrulline using the method reported by Fenske et. al. [J. Bacteriol. 126, 501-510 (1976)], and by measuring the amount of the yields using the method given by Archibald [J. Biol. Chem. 156, 121-142 (1944)].
Specifically, 20 μl of arginine deiminase solution is added to 1.0 ml of 10 mM arginine [dissolved in 0.1M phosphate buffer of pH 7.0], then an enzyme reaction is allowed to take place at 37° C. for 10 minutes, and the reaction is terminated by adding 1 ml of mixed acid solution (H2 SO4 :H3 PO4 =1:3). Then, the resultant reactive solution is added with 25 μl of 3% aqueous diacetylmonooxim solution, heated at 100° C. for 20 minutes under a light-shielded condition, left to cool under a room temperature for 30 minutes, and then the amount of the citrulline yield is measured quantitatively by measuring the absorbence at 490 nm. The activity of arginine deiminase producing 1 μmol of citrulline in one minute is defined as 1 unit.
v) Km value and Vmax value
By the Lineweaver-Burk plot analysis Km and Vmax were determined as 0.2 mM and 50 U/mg, respectively.

[2] = test system: M. hominis arginine deiminase; settings: literature value, Table 1; substrate L-arginine; cited from earlier work
[3] = test system: M. arthritidis arginine deiminase; settings: literature value, Table 1; substrate L-arginine; cited from earlier work
[4] = test system: Strepto- faecalis arginine deiminase; settings: literature value, Table 1; substrate L-arginine; cited from earlier work

For `N=C(N)NCCC[C@H](N)C(=O)O` [L-arginine], the Km [1] is given as roughly 200 µM, the Km [2] is given as 100 to 400 µM and the Km [3] is given as 4 µM. For the same molecule, the Km [4] was 150 µM.
